From patent US20240182859A1, “MEDIUM COMPOSITION FOR CULTURING MUSCLE STEM CELL COMPRISING CURCUMIN LONGA, GLYSIN, OR INSULIN FOR PROLIFERATION OF MUSCLE STEM CELL” (HYUPSUNG UNIVERSITY INDUSTRY-ACADEMIC COOPERATION FOUNDATION, priority 2021, published 2024) come the findings set out here.

One test relates to bovine muscle stem cells. The test is described as follows: Proliferation of bovine muscle stem cells in supplemented DMEM culture medium. The test is classed as cell-based.
The subject of another test is Oct4. In words: qPCR expression level of Oct4 (muscle stem cell marker) in cultured muscle stem cells. It counts as cell-based, bovine. A general note: Real-time PCR tracks product formation cycle by cycle.
The subject of the next test is Nanog. In words: qPCR expression level of Nanog (muscle stem cell marker) in cultured muscle stem cells. It counts as cell-based, bovine.
A further test concerns Pax7. The test is described as follows: qPCR expression level of Pax7 (myoblast marker) in cultured muscle stem cells. It counts as cell-based, bovine. The settings on record: for expression of Pax7, concentration dependence: concentration series.
Setting [1] is: bFGF-free medium with 5% FBS, overall statement.
Where [2] appears, read: insulin 10 μm or more, with 8 ng/ml bFGF.
The mark [3] stands for this setting: medium with 5% FBS + 8 ng/ml bFGF, overall statement, passage culture twice.
[4] abbreviates: medium with 5% FBS + 8 ng/ml bFGF.
Where [5] appears, read: glycine 1 mM to 50 mM, bFGF-free.

Description for Nanog: (§1) In detail, first, bovine rump meat was treated with trypsin, and then primary-cultured to obtain bovine muscle stem cells. Afterwards, a culture medium supplemented with curcumin and bFGF was prepared by varying the concentration of curcumin (0.1 μm, 1 μm, 5 μm, 8 μm, and 10 8 μm, respectively) in a DMEM basal medium supplemented with 5% FBS and 8 ng/ml of bFGF, and the muscle stem cells were cultured through passage culture twice.
(§2) In detail, first, bovine rump meat was treated with trypsin, and then primary-cultured to obtain bovine muscle stem cells. Afterwards, a culture medium supplemented with curcumin was prepared by varying the concentration of curcumin (0.1 μm, 1 μm, 5 μm, 8 μm, and 10 μm, respectively) in a DMEM basal medium supplemented with 5% FBS, and the muscle stem cells were cultured through passage culture twice.
(§3) In detail, first, bovine rump meat was treated with trypsin, and then primary-cultured to obtain bovine muscle stem cells.
(§4) First, bovine rump meat was treated with trypsin, and then primary-cultured to obtain bovine muscle stem cells.
(§5) In detail, first, bovine rump meat was treated with trypsin, and then primary-cultured to obtain bovine muscle stem cells. Afterwards, a culture medium supplemented with insulin and bFGF was prepared by varying the concentration of insulin (0.1 μm, 1 μm, 5 μm, 8 μm, and 10 8 μm, respectively) in a DMEM basal medium supplemented with 5% FBS and 8 ng/ml of bFGF, and the muscle stem cells were cultured through passage culture twice.
(§6) In detail, first, bovine rump meat was treated with trypsin, and then primary-cultured to obtain bovine muscle stem cells. Afterwards, a culture medium supplemented with insulin was prepared by varying the concentration of insulin (0.1 μm, 1 μm, 5 μm, 8 μm, and 10 μm, respectively) in a DMEM basal medium supplemented with 5% FBS, and the muscle stem cells were cultured through passage culture twice.
Description for Oct4: as §1, §2, §3, §4, §5, §6
Description for Pax7: as §1, §2, §3, §4, §5, §6
Description for bovine muscle stem cells: as §3
In detail, first, bovine rump meat was treated with trypsin, and then primary-cultured to obtain bovine muscle stem cells. […] As a control, a DMEM basal medium supplemented with 5% FBS was used.
In detail, first, bovine rump meat was treated with trypsin, and then primary-cultured to obtain bovine muscle stem cells. Afterwards, the muscle stem cells were cultured in the DMEM basal medium supplemented with 5% FBS and 10 μM of insulin, and the proliferation of the muscle stem cells was measured. As a control, a DMEM basal medium supplemented with 5% FBS was used.

In the case of insulin, the “cell proliferation rate increase compared to basal medium” value (shortened to “cell proliferation rate increase”) is on record as no less than 6 times in the test with bovine muscle stem cells (10 μm insulin, DMEM + 5% FBS + 8 ng/ml bFGF, cultured for 29 days) and no less than 13 times in the test with bovine muscle stem cells (10 μm insulin, DMEM + 5% FBS, bFGF-free, cultured for 41 days). Moreover, the “expression of Oct4” value in the test with Oct4 (setting [1]) is “increased”; in the test on Oct4 (setting [2]) it was “significantly decreased”; with Oct4 (setting [3]), “increased”. The “expression of Nanog” value in the test on Nanog (setting [1]) was “maintained”; in the test on Nanog (setting [2]), “significantly decreased”; in the test with Nanog (insulin 10 μm, bFGF-free), “significantly decreased”; in the test with Nanog (setting [3]), “increased”. The “expression of Pax7, concentration dependence” value with Pax7 (bFGF-free medium with 5% FBS) and in the test with Pax7 (setting [4]) was “increased in proportion to the concentration of insulin” each time.

As to `NCC(=O)O` [glycine], the “cell proliferation rate increase” value is on record as no less than 1.5 times in the test with bovine muscle stem cells (100 mM glycine, DMEM + 5% FBS + 8 ng/ml bFGF, cultured for 29 days) and no less than 4.1 times with bovine muscle stem cells (100 mM glycine, DMEM + 5% FBS, bFGF-free, cultured for 41 days). Moreover, the “expression of Oct4 vs glycine-free DMSO control” value with Oct4 (setting [5]) is reported as “increased by about twice”. Also, the “expression of Oct4 increase vs glycine-free DMSO control” value with Oct4 (glycine 1 mM to 50 mM, with 8 ng/ml bFGF) was “about 2.3 times”. In addition, the “expression of Oct4” value with Oct4 (glycine 100 mM or more, with 8 ng/ml bFGF) was “significantly decreased”; in the test on Oct4 (glycine 100 mM, bFGF-free), “significantly decreased”; in the test with Oct4 (setting [3]), “increased”. Also, the “expression of Nanog vs glycine-free DMSO control” value is “increased by about twice” in the test on Nanog (setting [5]) and “increased by about twice” in the test on Nanog (glycine 10 mM to 100 mM, with 8 ng/ml bFGF). The “expression of Nanog” value with Nanog (glycine 100 mM, bFGF-free) is “significantly decreased”; with Nanog (glycine 150 mM or more, with 8 ng/ml bFGF), “significantly decreased”; in the test on Nanog (setting [3]) it was “increased”. Further, the “expression of Pax7 increase vs insulin-free DMSO control” value with Pax7 (10 µM, bFGF-free insulin culture medium) is on record as no less than 6 times. Moreover, the “expression of Pax7, concentration dependence” value in the test on Pax7 (bFGF-free medium with 5% FBS) and with Pax7 (setting [4]) was “increased in proportion to the concentration of glycine” in each case. Also, the “expression of Pax7 increase vs glycine-free DMSO control” value with Pax7 (glycine 100 mM or more, bFGF-free) is given as no less than 3 times.

In the case of `COc1cc(/C=C/C(=O)CC(=O)/C=C/c2ccc(O)c(OC)c2)ccc1O` [curcumin], the “cell proliferation rate increase” value is given as no less than 1.5 times in the test on bovine muscle stem cells (8 μm curcumin, DMEM + 5% FBS + 8 ng/ml bFGF, cultured for 29 days) and no less than 1.5 times with bovine muscle stem cells (8 μm curcumin, DMEM + 5% FBS, bFGF-free, cultured for 41 days). For the same compound, the “expression of Oct4 vs curcumin-free DMSO control” value with Oct4 (curcumin 0.1 μm to 5 μm, with 8 ng/ml bFGF) is on record as “increased by about twice”; in the test on Oct4 (curcumin 1 μm to 5 μm, bFGF-free), “increased by at least about twice”. The “expression of Oct4” value is “significantly decreased” in the test with Oct4 (curcumin 8 μm or more, with 8 ng/ml bFGF); “significantly decreased” with Oct4 (curcumin 8 μm, bFGF-free); “increased” in the test on Oct4 (setting [3]). In addition, the “expression of Nanog” value is “maintained” with Nanog (setting [1]); “significantly decreased” in the test on Nanog (curcumin 5 μm or more, with 8 ng/ml bFGF); “significantly decreased” in the test on Nanog (curcumin 8 μm, bFGF-free); “increased” in the test with Nanog (setting [3]). Further, the “expression of Nanog vs curcumin-free DMSO control” value in the test with Nanog (curcumin 0.1 μm and 1 μm, with 8 ng/ml bFGF) is on record as “increased by about twice”. Moreover, the “expression of Pax7, concentration dependence” value in the test with Pax7 (bFGF-free medium with 5% FBS) and in the test with Pax7 (setting [4]) was “increased in proportion to the concentration of curcumin” each time. Also, the “expression of Pax7” value in the test on Pax7 (curcumin 8 μm, bFGF-free) is reported as “significantly increased”.
